Test results: patent US12291501B2 (University of Florida Research Foundation, Inc., priority 2021, dated 2025)
Several values for one entry are separate records, joined by “and”; a condition that tells them apart may be missing. Equal values may be shown once. Entries after “also recorded” stand apart in the source; their conditions may differ.

Experiments:
Format in all cases: cell-based
α7 nAChR [1] = target: T1, α7 nAChR (Homo sapiens, UniProt P36544); experiment: Two-electrode voltage-clamp, agonist concentration-response, α7 nAChR in Xenopus oocytes; conditions: for EC50 / α7 Imax: net charge, ± standard error of fit; for α7 Imax: relative to ACh (Imax = 1)
T1 construct: expressed in transfected cells; host or cells: Xenopus laevis oocytes, injected with in vitro transcribed RNA
Text: (§1) Electrophysiology: Xenopus oocytes were microinjected with RNAs to produce functional nAChR which were characterized by two-electrode voltage-clamp measurements. FIGS. 5A-7D present concentration-response curves for the new compounds evaluated with α7, α9, and α9α10 receptors. Table 1 presents the values for Imax and EC50 with these receptors and Table 2 summarizes inhibition data for the compounds with heteromeric nAChR.
(§2) Molecular Biology: Plasmid DNAs encoding the human α7 and heteromeric nAChR were obtained from Jon Lindstrom (University of Pennsylvania, Philadelphia, PA). Mouse muscle subunit clones were obtained from Jim Boulter (Salk Institute, La Jolla CA) and Paul Gardner (Dartmouth, Hanover NH). […] Plasmid DNA encoding the human α10 nAChR was obtained from J. Michael McIntosh. Plasmid DNA encoding the human α9 nAChR and the human receptor-associated protein of the synapse (RAPSYN) with codon optimization for expression in Xenopus laevis were obtained from Katrin Richter. […] After linearization and purification of the plasmid DNAs, RNAs were prepared using the mMessage mMachine in vitro RNA transcription kit (Ambion, Austin, TX). […] Oocytes were maintained in Barth's solution containing 0.32 mM Ca(NO3)2 and 0.41 mM CaCl2, and recordings were conducted 2-20 days after injection.
(§3) Electrophysiology: Two-electrode voltage-clamp experiments were conducted using OpusXpress 6000A (Molecular Devices, Union City CA, USA). Both the voltage and current electrodes were filled with 3 M KCl. Oocytes were voltage-clamped at −60 mV at rt.
(§4) The responses were calculated as both peak-current amplitudes and net charge. Data were collected at 50 Hz, filtered at 20 Hz, and analyzed by Clampfit (Molecular Devices) and Excel (Microsoft, Redmond, WA, United States). Data are expressed as means±SEM from at least five oocytes for each experiment and plotted with Kaleidagraph 4.5.2 (Abelbeck Software, Reading, PA, United States). Each episode of data acquisition was a total of 210 s and included an initial 30 s period used to define the baseline for the drug-evoked responses. After 30 s, drugs were applied, and the following 120 s were defined as the drug response period for analysis. […] The values for the curve fits were generated using the Levenberg-Marquardt algorithm to obtain the best Chi-Square fit to the Hill equation using the Kaleidagraph 4.5.2 plotting program. The errors in the tables are the calculated standard errors of the fit parameters based on the goodness of fit.

α3β4 nAChR = target: T2, α3β4 nAChR (Homo sapiens, UniProt P30926+P32297); experiment: Inhibition of control ACh responses by co-application, α3β4 nAChR in oocytes; conditions: 3 μM compound co-applied with ACh; fraction of control ACh response
T2 construct: expressed in transfected cells; host or cells: Xenopus laevis oocytes
Procedure: (§5) Initial profiling against heteromeric receptors: The test compounds for their ability to activate or inhibit other nAChR subtypes were evaluated. Agonist activity was evaluated by applying the compounds at 100 or 30 μM to human α4β2 and α3β4 as well as to mouse muscle α1β1εδ nAChR expressed in Xenopus oocytes. […] The inhibitory activity was generally low (Table 3).
(§6) Molecular Biology: Plasmid DNAs encoding the human α7 and heteromeric nAChR were obtained from Jon Lindstrom (University of Pennsylvania, Philadelphia, PA). Mouse muscle subunit clones were obtained from Jim Boulter (Salk Institute, La Jolla CA) and Paul Gardner (Dartmouth, Hanover NH). The human resistance-to-cholinesterase 3 ([…]) clone was obtained from Millet Treinin (Hebrew University, Jerusalem, Israel) and RNA co-injected with α7 to improve the level and speed of receptor expression without affecting their pharmacological properties. Plasmid DNA encoding the human α10 nAChR was obtained from J. Michael McIntosh. Plasmid DNA encoding the human α9 nAChR and the human receptor-associated protein of the synapse (RAPSYN) with codon optimization for expression in Xenopus laevis were obtained from Katrin Richter. RAPSYN RNA was co-injected with the α9 and α10 to improve expression (Richter et al., (2022) Front. Cell Neurosci. 16: 779081). After linearization and purification of the plasmid DNAs, RNAs were prepared using the mMessage mMachine in vitro RNA transcription kit (Ambion, Austin, TX). Frogs were maintained in the Animal Care Service facility of the University of Florida, and all procedures were approved by the University of Florida Institutional Animal Care and Use Committee (approval number 202002669). In brief, the animals were first anesthetized for 15-20 min in 1.5 l frog tank water containing 1 g of MS-222 buffered with sodium bicarbonate. Oocytes were obtained surgically from mature female Xenopus laevis (Nasco, Ft. Atkinson WI, USA) and treated with 1.4 mg/ml type 1 collagenase (Worthington Biochemicals, Freehold NJ, USA) for 2-4 h at rt in Ca2+-free Barth's solution (88 mM NaCl, 1 mM KCl, 2.38 mM NaHCO3, 0.82 mM MgSO4, 15 mM HEPES, and 12 mg/l tetracycline, pH 7.6) to remove the ovarian tissue and the follicular layers. Stage V oocytes were injected with 4-6 ng CHRNA7 RNA and 2-3 ng RIC3 RNA (2:1 ratio) in 50 nl water, or with 12 ng CHRNA9 RNA and 3 ng RAPSN RNA, or along with 12 ng CHRNA10 RNA in 50 nl water. Oocytes were maintained in Barth's solution containing 0.32 mM Ca(NO3)2 and 0.41 mM CaCl2, and recordings were conducted 2-20 days after injection.
(§7) Electrophysiology: Two-electrode voltage-clamp experiments were conducted using OpusXpress 6000A (Molecular Devices, Union City CA, USA). Both the voltage and current electrodes were filled with 3 M KCl. Oocytes were voltage-clamped at −60 mV at rt. The oocytes were perfused with Ringer's solution (115 mM NaCl, 2.5 mM KCl, 1.8 mM CaCl2, 10 mM HEPES, 1 μM atropine, pH 7.2) at 2 ml/min. […] Drug applications were 12 s in duration followed by 181 s washout periods.
as §4

α9 nAChR = target: T3, α9 nAChR (Homo sapiens, UniProt Q9UGM1); experiment: Two-electrode voltage-clamp, agonist concentration-response, α9 nAChR in Xenopus oocytes; conditions: for Fold loss of potency at α9 relative to comparator compound: 3e vs larger ammonium analogs, 3h relative to 3g; for α9 Imax: relative to ACh (Imax = 1)
T3 construct: expressed in transfected cells; host or cells: Xenopus laevis oocytes, injected with in vitro transcribed RNA
Text: as §1, §6, §7
as §4, with “The errors in the tables are the calculated standard errors of the fit parameters based on the goodness of fit.” left out

α1β1εδ nAChR = target: T4, α1β1εδ nAChR (Mus musculus, UniProt P02716+P04756+P09690+P20782); experiment: Inhibition of control ACh responses by co-application, muscle α1β1εδ nAChR in oocytes; conditions: 3 μM compound co-applied with ACh; fraction of control ACh response
T4 construct: expressed in transfected cells; host or cells: Xenopus laevis oocytes
Procedure: as §5, §6, §7, §4

α4β2 nAChR = target: T5, α4β2 nAChR (Homo sapiens, UniProt P17787+P43681); experiment: Inhibition of control ACh responses by co-application, α4β2 nAChR in oocytes; conditions: 3 μM compound co-applied with ACh; fraction of control ACh response
T5 construct: expressed in transfected cells; host or cells: Xenopus laevis oocytes
Procedure: as §5, §6, §7, §4

α7 nAChR [2] = target: T1, α7 nAChR; experiment: α7 responses to drugs co-applied with the PAM PNU-120596 (silent agonism); conditions: for Response co-applied with PNU-120596, normalized to ACh co-applied with PNU-120596: drug 30 μM + 10 μM PNU-120596, normalized to 30 μM ACh + 10 μM PNU-120596
Text: as §2, §3, §4

α9α10 nAChR = target: T6, α9α10 nAChR (Homo sapiens, UniProt Q9GZZ6+Q9UGM1); experiment: Two-electrode voltage-clamp, agonist concentration-response, α9α10 nAChR in Xenopus oocytes; conditions: for Fold loss of potency at α9α10 relative to comparator compound: 3e vs larger ammonium analogs, 3h relative to 3g; for α9α10 Imax: relative to ACh (Imax = 1)
T6 construct: expressed in transfected cells; host or cells: Xenopus laevis oocytes, injected with in vitro transcribed RNA
Text: as §1, §6, §7
as §4, with “The errors in the tables are the calculated standard errors of the fit parameters based on the goodness of fit.” left out

[3] = peak currents, ± standard error of fit

T2 sequence (P32297 32-505): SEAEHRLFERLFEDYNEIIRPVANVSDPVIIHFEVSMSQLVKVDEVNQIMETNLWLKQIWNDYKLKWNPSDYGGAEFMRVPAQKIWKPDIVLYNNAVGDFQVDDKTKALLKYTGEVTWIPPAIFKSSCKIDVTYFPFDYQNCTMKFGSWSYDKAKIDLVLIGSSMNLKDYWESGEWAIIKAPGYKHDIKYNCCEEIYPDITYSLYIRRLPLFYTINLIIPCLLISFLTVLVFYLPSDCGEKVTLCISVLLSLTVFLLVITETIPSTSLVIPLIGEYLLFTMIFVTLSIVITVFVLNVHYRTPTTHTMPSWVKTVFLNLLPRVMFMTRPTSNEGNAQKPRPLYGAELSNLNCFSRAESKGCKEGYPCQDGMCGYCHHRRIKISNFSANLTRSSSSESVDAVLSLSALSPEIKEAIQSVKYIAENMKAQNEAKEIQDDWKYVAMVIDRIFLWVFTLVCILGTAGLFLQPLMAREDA
T2 sequence (P30926 22-498): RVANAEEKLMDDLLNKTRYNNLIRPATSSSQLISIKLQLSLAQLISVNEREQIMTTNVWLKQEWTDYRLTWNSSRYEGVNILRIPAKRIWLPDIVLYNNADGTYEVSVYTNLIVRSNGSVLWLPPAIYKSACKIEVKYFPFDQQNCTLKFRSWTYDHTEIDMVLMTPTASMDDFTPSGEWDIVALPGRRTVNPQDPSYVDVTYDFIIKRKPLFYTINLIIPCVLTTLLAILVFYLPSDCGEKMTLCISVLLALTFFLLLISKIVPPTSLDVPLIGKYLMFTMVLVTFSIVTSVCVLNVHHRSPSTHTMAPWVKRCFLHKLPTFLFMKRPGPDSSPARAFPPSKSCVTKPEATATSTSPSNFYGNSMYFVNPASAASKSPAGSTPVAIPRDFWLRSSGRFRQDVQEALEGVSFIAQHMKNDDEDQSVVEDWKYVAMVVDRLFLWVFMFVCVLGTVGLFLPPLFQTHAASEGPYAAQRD
T4 sequence (P04756 21-457): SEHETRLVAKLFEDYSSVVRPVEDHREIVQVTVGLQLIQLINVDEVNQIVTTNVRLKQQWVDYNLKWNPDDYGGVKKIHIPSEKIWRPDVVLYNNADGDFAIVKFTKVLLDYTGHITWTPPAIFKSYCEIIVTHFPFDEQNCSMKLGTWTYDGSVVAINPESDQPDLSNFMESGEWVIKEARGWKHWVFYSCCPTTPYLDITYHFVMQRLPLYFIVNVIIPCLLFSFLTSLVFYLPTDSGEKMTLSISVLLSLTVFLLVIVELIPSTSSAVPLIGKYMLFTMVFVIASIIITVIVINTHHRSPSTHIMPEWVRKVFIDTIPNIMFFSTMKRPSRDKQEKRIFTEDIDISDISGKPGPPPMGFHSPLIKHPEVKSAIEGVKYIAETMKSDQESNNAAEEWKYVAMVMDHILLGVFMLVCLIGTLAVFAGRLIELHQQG
T4 sequence (P09690 24-501): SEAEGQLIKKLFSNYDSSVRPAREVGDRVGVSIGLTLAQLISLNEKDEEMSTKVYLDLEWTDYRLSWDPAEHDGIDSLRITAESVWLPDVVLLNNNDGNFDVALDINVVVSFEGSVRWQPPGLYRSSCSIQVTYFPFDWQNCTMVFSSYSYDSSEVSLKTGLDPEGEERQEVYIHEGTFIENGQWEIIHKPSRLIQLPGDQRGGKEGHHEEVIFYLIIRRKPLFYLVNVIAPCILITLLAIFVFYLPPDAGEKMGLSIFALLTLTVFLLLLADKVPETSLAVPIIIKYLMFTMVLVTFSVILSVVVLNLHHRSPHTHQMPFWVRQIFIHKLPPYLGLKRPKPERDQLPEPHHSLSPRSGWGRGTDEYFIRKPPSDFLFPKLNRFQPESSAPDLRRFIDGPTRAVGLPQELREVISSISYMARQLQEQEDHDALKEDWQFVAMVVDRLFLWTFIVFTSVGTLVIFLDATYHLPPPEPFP
T4 sequence (P20782 21-493): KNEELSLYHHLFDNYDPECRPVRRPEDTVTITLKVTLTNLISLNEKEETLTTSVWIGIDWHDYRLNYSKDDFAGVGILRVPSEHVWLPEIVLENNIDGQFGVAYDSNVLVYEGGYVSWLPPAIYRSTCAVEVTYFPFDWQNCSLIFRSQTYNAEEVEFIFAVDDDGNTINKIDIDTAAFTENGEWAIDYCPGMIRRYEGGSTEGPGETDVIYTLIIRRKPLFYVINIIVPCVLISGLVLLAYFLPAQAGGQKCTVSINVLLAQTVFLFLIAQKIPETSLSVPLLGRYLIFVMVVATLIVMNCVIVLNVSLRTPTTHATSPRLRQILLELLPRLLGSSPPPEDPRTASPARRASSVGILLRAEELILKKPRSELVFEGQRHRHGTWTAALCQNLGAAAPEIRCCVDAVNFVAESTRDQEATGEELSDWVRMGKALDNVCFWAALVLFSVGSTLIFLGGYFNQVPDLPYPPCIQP
T4 sequence (P02716 25-520): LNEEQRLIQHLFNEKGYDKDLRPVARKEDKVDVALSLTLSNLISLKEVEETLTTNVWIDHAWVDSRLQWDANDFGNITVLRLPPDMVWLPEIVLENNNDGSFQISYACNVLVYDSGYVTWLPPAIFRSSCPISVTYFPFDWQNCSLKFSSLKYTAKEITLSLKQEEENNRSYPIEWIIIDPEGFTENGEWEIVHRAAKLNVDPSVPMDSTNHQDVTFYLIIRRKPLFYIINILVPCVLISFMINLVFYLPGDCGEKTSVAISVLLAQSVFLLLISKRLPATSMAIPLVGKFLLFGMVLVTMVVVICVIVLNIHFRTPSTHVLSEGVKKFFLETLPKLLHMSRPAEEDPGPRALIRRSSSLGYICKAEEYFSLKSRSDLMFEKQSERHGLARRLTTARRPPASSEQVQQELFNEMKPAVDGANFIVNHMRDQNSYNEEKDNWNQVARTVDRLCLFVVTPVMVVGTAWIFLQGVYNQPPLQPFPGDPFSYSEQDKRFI
T1 sequence (P36544 23-502): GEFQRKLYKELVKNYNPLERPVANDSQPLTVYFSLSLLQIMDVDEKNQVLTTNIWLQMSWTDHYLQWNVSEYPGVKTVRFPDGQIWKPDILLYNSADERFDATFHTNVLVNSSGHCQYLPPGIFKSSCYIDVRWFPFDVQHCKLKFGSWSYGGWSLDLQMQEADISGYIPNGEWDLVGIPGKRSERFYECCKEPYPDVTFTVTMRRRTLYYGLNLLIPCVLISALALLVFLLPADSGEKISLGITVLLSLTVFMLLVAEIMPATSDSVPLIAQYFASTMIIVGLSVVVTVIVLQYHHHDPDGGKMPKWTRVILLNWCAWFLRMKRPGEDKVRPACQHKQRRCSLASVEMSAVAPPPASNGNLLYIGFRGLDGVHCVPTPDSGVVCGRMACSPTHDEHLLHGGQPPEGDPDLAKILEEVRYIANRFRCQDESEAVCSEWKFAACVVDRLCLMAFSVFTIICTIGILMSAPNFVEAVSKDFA
T6 sequence (Q9UGM1 26-479 limits assumed): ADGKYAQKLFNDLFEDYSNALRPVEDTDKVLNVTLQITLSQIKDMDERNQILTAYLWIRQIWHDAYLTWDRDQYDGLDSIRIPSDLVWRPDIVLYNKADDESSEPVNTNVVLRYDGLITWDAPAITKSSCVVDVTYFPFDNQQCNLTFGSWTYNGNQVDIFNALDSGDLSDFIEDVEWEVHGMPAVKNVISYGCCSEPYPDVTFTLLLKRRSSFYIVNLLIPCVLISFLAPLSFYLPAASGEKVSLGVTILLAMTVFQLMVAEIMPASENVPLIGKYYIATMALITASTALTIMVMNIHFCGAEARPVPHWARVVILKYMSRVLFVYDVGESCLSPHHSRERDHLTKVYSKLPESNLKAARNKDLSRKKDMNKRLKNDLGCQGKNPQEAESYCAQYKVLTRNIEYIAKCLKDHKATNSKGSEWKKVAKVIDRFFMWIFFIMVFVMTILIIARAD
T6 sequence (Q9GZZ6 25-450): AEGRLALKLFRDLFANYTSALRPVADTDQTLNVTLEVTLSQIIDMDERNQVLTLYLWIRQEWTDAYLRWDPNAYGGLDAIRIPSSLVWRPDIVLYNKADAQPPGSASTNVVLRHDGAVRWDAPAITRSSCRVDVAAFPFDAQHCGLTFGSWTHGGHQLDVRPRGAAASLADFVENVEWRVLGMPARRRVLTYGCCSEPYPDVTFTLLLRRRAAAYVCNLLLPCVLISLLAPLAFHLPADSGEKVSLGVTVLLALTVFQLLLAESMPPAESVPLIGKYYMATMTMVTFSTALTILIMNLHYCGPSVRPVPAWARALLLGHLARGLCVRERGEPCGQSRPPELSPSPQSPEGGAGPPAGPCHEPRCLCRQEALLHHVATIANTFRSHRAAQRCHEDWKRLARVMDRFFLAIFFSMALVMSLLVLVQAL
T3 sequence (Q9UGM1 26-479 limits assumed): as the sequence (Q9UGM1 26-479 limits assumed) above

Row | SMILES | EC50 (α7 nAChR [1]) [µM] | α7 Imax (α7 nAChR [1]) | Effect of co-application on the control ACh responses, α3β4 (α3β4 nAChR) | Agonist character / efficacy at α9 (α9 nAChR) | Fold loss of potency at α9 relative to comparator compound (α9 nAChR) | EC50 (α9 nAChR; [3]) [µM] | α9 Imax (α9 nAChR; [3]) | Effect of co-application on the control ACh responses, α1β1εδ (α1β1εδ nAChR) | Effect of co-application on the control ACh responses, α4β2 (α4β2 nAChR) | Response co-applied with PNU-120596, normalized to ACh co-applied with PNU-120596 (α7 nAChR [2]) | Agonist character / efficacy at α9α10 (α9α10 nAChR) | Fold loss of potency at α9α10 relative to comparator compound (α9α10 nAChR) | EC50 (α9α10 nAChR; [3]) [µM] | α9α10 Imax (α9α10 nAChR; [3]) | Agonist character / efficacy at α7 (α7 nAChR [1]) | α9 EC50 (α9 nAChR; [3]) | α9α10 EC50 (α9α10 nAChR; [3]) | Fold loss of potency at α7 relative to comparator compound (α7 nAChR [1]; 3h compared with 3g) [fold] | Response co-applied with PNU-120596 relative to the ACh controls (α7 nAChR [2]; 30 μM compound + 10 μM PNU-120596, relative to ACh alone controls)
1 | Cc1cccc(NC(=O)c2ccc(N3CC[N+](C)(C)CC3)cc2)n1.[I-] [Compound 3e, 1,1-dimethyl-4-(4-((6-methylpyridin-2-yl)carbamoyl)phenyl)piperazin-1-ium iodide] | 4.3 ± 1 | 0.57 ± 0.03 and 0.57 | 0.838 ± 0.037 | partial agonist | about 10 fold | 7 ± 6 | 0.51 ± 0.07 | 0.709 ± 0.091 | 0.912 ± 0.038 | 0.16 | fully efficacious agonist | about 10 fold | 4.2 ± 1.5 | 0.89 ± 0.07 | – | – | – | – | –
2 | CC[N+]1(C)CCN(c2ccc(C(=O)Nc3cccc(C)n3)cc2)CC1.[I-] [Compound 3f, 1-ethyl-1-methyl-4-(4-((6-methylpyridin-2-yl)carbamoyl)phenyl)piperazin-1-ium iodide] | 4.3 to 6.4 | 0.40 ± 0.02 and 0.4 | 0.849 ± 0.018 | full agonist | – | – | 1.19±0.03 | 0.413 ± 0.070 | 0.858 ± 0.045 | 0.13 | – | – | – | 0.92±0.04 | – | – | – | – | –
3 | CC[N+]1(CC)CCN(c2ccc(-c3ncco3)cc2)CC1.[I-] [Compound 3g, 1,1-diethyl-4-(4-(oxazol-2-yl)phenyl)piperazin-1-ium iodide] | 1.7 ± 0.4 | 0.12 ± 0.01 and 0.12 | 0.507 ± 0.032 | full agonism; also recorded: full agonist | – | 0.38 ± 0.17 | 1.29±0.13 | 0.353 ± 0.071 | 0.823 ± 0.043 | 0.05 | strong partial agonist | – | 0.7 ± 0.03 | 0.83±0.01 | strongly diminished activity; also recorded: very weak partial agonists | submicromolar potency | submicromolar potency | – | –
4 | CC[N+]1(CC)CCN(c2ccc(-n3cccn3)cc2)CC1.[I-] [Compound 3h, 4-(4-(1H-pyrazol-1-yl)phenyl)-1,1-diethylpiperazin-1-ium iodide] | 18 ± 0.6 | 0.088 ± 0.001 and 0.088 | 0.736 ± 0.034 | full agonist | 3 fold | 1.49 ± 0.24 | 1.01 ± 0.04 | 0.590 ± 0.062 | 0.913 ± 0.026 | 0.17 | partial agonist | 3 fold | 2 ± 0.8 | 0.59 ± 0.05 | very weak partial agonists | – | – | 10 | approximately 4 times
